From ChEMBL document CHEMBL1201862, “PubChem BioAssay data set” (2004)
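Test compounds were applied to cells in 96-well plates for 48 hours at 5 doses. GI50: concentration for 50% inhibition of growth.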 The source made the active and inactive calls. Rule as the data show it: active = GI50 up to about 1.1 µM and inactive = higher.

Tests used:
Experiment in all cases: NCI tumour cell line growth inhibition, 48 h
A498 = system: A498
A549 = system: A549
ACHN = system: ACHN
CAKI-1 = system: CAKI-1
HOP-92 = system: HOP-92
HT-29 = system: HT-29
IGROV-1 = system: IGROV-1
KM12 = system: KM12
MOLT-4 = system: MOLT-4
NCI-H226 = system: NCI-H226
OVCAR-3 = system: OVCAR-3
OVCAR-4 = system: OVCAR-4
RXF 393 = system: RXF 393
SF-268 = system: SF-268
SK-MEL-5 = system: SK-MEL-5
SW-620 = system: SW-620
UACC-257 = system: UACC-257
NCI/ADR-RES = system: NCI/ADR-RES

Measured: GI50

COc1ccc2c(c1)[n+]([O-])c(C(=O)CC(=O)C(=O)Nc1cccc(Cl)c1C)c(C)[n+]2[O-]
inactive: A498 > 100 µM | A549 > 100 µM | ACHN > 100 µM | CAKI-1 > 100 µM | HOP-92 > 100 µM | HT-29 83 µM | IGROV-1 > 100 µM | KM12 > 100 µM | MOLT-4 49.4 µM | NCI-H226 > 100 µM | OVCAR-3 27.3 µM | OVCAR-4 > 100 µM | RXF 393 > 100 µM | SF-268 > 100 µM | SK-MEL-5 > 100 µM | SW-620 68.9 µM | UACC-257 > 100 µM

Cc1ccc(C)n1-c1ccccc1C1C=Cn2c(=O)oc3c(OC(C)C)c(OC(C)C)c(O)c1c32 (stereo not given)
inactive: A498 43.8 µM | A549 16.5 µM | ACHN 33.3 µM | CAKI-1 22 µM | HOP-92 24.9 µM | HT-29 18.2 µM | IGROV-1 54 µM | KM12 8.11 µM | MOLT-4 6.84 µM | NCI-H226 15.8 µM | NCI/ADR-RES 27.4 µM | OVCAR-3 27.5 µM | OVCAR-4 32.6 µM | RXF 393 7.78 µM | SF-268 43.8 µM | SK-MEL-5 14.4 µM | SW-620 11.4 µM | UACC-257 17.1 µM

COc1cc(OC)cc(Oc2nc3c(N)cc(C(F)(F)F)cc3nc2-c2ccccc2)c1
inactive: A498 > 100 µM | ACHN 28.5 µM | CAKI-1 26.9 µM | HOP-92 > 100 µM | HT-29 15.9 µM | IGROV-1 21.8 µM | KM12 13.8 µM | MOLT-4 9.27 µM | NCI-H226 43.2 µM | NCI/ADR-RES 52.6 µM | OVCAR-4 78.9 µM | RXF 393 21.1 µM | SF-268 74.8 µM | SK-MEL-5 37.3 µM | SW-620 28.5 µM | UACC-257 79.3 µM

CN(C(=O)C1CCCCCC1=O)c1ccccc1Cl (stereo not given)
inactive: A498 > 100 µM | A549 > 100 µM | ACHN > 100 µM | CAKI-1 > 100 µM | HOP-92 > 100 µM | HT-29 > 100 µM | IGROV-1 > 100 µM | KM12 > 100 µM | MOLT-4 > 100 µM | NCI-H226 > 100 µM | NCI/ADR-RES > 100 µM | OVCAR-3 > 100 µM | OVCAR-4 > 100 µM | RXF 393 > 100 µM | SF-268 > 100 µM | SK-MEL-5 > 100 µM | SW-620 > 100 µM | UACC-257 > 100 µM

CC(C)[Si](Oc1ccc(CC2N(C(=O)c3ccc([N+](=O)[O-])cc3)C(CCc3ccccc3)CC2(C)C=O)cc1)(C(C)C)C(C)C (stereo not given)
inactive: A498 > 100 µM | ACHN > 100 µM | CAKI-1 > 100 µM | HOP-92 13.9 µM | IGROV-1 7.38 µM | NCI-H226 15.5 µM | OVCAR-3 > 100 µM | OVCAR-4 > 100 µM | RXF 393 5.85 µM | SF-268 19.4 µM | UACC-257 > 100 µM
